Results from the supplement of paper PMC4862054.

What was measured:
Conditions in all cases: incubation time: 72 h
Hs578T [1] = assay: normalised response (% of control), CellTox Green; higher = less cell death (100 = DMSO, 0 = benzethonium chloride kill control)
Method in brief: (§1)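 Breast cancer cell lines, seeded at 20 µl suspension per well, were incubated for 72 h in 384-well plates containing compound at 5 concentrations. These concentrations rose in 10-fold steps over a 10,000-fold range set for each compound. CellTox Green fluorescence (485/520 nm) was read, then CellTiter-Glo luminescence after 10 min at room temperature, and each plate was normalised to 0.1 % DMSO (100) and a positive kill control (0). Values are normalised signals, each at one concentration.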

HCC1143 [2] = assay: as above
Method in brief: as §1

HCC1937 [3] = assay: as above
Method in brief: as §1

HDQ-P1 [4] = assay: as above
Method in brief: as §1

CAL-51 [5] = assay: as above
Method in brief: as §1

MDA-MB-436 [6] = assay: as above
Method in brief: as §1

MDA-MB-231 [7] = assay: as above
Method in brief: as §1

MDA-MB-468 [8] = assay: as above
Method in brief: as §1

CAL-148 [9] = assay: as above
Method in brief: as §1

MDA-MB-453 [10] = assay: as above
Method in brief: as §1

BT-474 [11] = assay: as above
Method in brief: as §1

MFM-223 [12] = assay: as above
Method in brief: as §1

BT-549 [13] = assay: as above
Method in brief: as §1

DU-4475 [14] = assay: as above
Method in brief: as §1

CAL-85-1 [15] = assay: as above
Method in brief: as §1

HCC1599 [16] = assay: as above
Method in brief: as §1

CAL-120 [17] = assay: as above
Method in brief: as §1

MCF-10A [18] = assay: as above
Method in brief: as §1

Hs578T [19] = assay: normalised response (% of control), CellTiter-Glo; higher = more viable cells (100 = DMSO, 0 = benzethonium chloride kill control)
Method: (§2)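 DSRT, 72 h incubation, CellTox Green / CellTiter-Glo readout. Signal is normalised to DMSO and benzethonium chloride controls. Value is the normalised response at the highest dose.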

HCC1143 [20] = assay: as above
Method: as §2

HCC1937 [21] = assay: as above
Method: as §2

SK-BR-3 = assay: as above
Method: as §2

HDQ-P1 [22] = assay: as above
Method: as §2

CAL-51 [23] = assay: as above
Method: as §2

MDA-MB-436 [24] = assay: as above
Method: as §2

MDA-MB-231 [25] = assay: as above
Method: as §2

MDA-MB-468 [26] = assay: as above
Method: as §2

CAL-148 [27] = assay: as above
Method: as §2

MDA-MB-453 [28] = assay: as above
Method: as §2

BT-474 [29] = assay: as above
Method: as §2

MFM-223 [30] = assay: as above
Method: as §2

BT-549 [31] = assay: as above
Method: as §2

DU-4475 [32] = assay: as above
Method: as §2

CAL-85-1 [33] = assay: as above
Method: as §2

HCC1599 [34] = assay: as above
Method: as §2

CAL-120 [35] = assay: as above
Method: as §2

MCF-10A [36] = assay: as above
Method: as §2

Row | Compound | normalised response (Hs578T [1]) | normalised response (HCC1143 [2]) | normalised response (HCC1937 [3]) | normalised response (HDQ-P1 [4]) | normalised response (CAL-51 [5]) | normalised response (MDA-MB-436 [6]) | normalised response (MDA-MB-231 [7]) | normalised response (MDA-MB-468 [8]) | normalised response (CAL-148 [9]) | normalised response (MDA-MB-453 [10]) | normalised response (BT-474 [11]) | normalised response (MFM-223 [12]) | normalised response (BT-549 [13]) | normalised response (DU-4475 [14]) | normalised response (CAL-85-1 [15]) | normalised response (HCC1599 [16]) | normalised response (CAL-120 [17]) | normalised response (MCF-10A [18]) | normalised response (Hs578T [19]) | normalised response (HCC1143 [20]) | normalised response (HCC1937 [21]) | normalised response (SK-BR-3) | normalised response (HDQ-P1 [22]) | normalised response (CAL-51 [23]) | normalised response (MDA-MB-436 [24]) | normalised response (MDA-MB-231 [25]) | normalised response (MDA-MB-468 [26]) | normalised response (CAL-148 [27]) | normalised response (MDA-MB-453 [28]) | normalised response (BT-474 [29]) | normalised response (MFM-223 [30]) | normalised response (BT-549 [31]) | normalised response (DU-4475 [32]) | normalised response (CAL-85-1 [33]) | normalised response (HCC1599 [34]) | normalised response (CAL-120 [35]) | normalised response (MCF-10A [36])
1 | Cc1ccc([N+](=O)[O-])cc1S(=O)(=O)N(C)/N=C/c1cnc2ccc(Br)cn12 [PIK-75] (10000 nM) | -10.9% | 54.4% | 24.7% | 66.3% | -5.71% | 76% | -38.5% | 31.6% | 65.1% | 51.3% | 7.46% | 18.6% | -7.34% | 74.7% | 50.7% | 72.6% | 81.7% | -39.7% | 0.96% | 12.6% | 6.99% | 0.21% | 17.4% | 5.22% | 15% | 1.78% | 2.17% | 37.5% | 0.48% | 8.5% | 3.73% | 1.57% | 1.22% | 7.97% | 8.43% | 26.6% | -0.11%
2 | CC(=O)c1c(C)c2cnc(Nc3ccc(N4CCNCC4)cn3)nc2n(C2CCCC2)c1=O [Palbociclib] (10000 nM) | 135% | 101% | 89% | 50.1% | 94.1% | 68.1% | 121% | 193% |  | 61.4% | 96% | 90.1% | 106% | 97% | 103% | 99.4% | 102% | 74.4% | 86.9% | 76.5% | 93.2% | 52.9% | 86.3% | 55% | 74.4% | 84.3% | 68.2% | 80.4% | 92.7% | 69.7% | 65.9% | 79.3% | 86.9% | 70.4% | 86.5% | 77.7% | 65.8%
3 | CC(=O)N(O)CCCCCNC(=O)CCC(=O)N(O)CCCCCNC(=O)CCC(=O)N(O)CCCCCN [Deferoxamine] (10000 nM) | 113% | 79.9% | 90.9% | 104% | 48% | 98.2% | 98.7% | 150% | 37.6% | 102% | 82.7% | 101% | 81.3% | 81.2% | 128% | 92.8% | 103% | 105% | 62% | 65% | 64.1% | 40.5% | 64.6% | 37.9% | 48.8% | 71.8% | 37.7% | 26.6% | 89.6% | 76% | 70.9% | 54.5% | 18.3% | 78.8% | 45.9% | 87.2% | 57.5%
